biological target: T1, human 15-PGDH (Homo sapiens, UniProt P15428); experiment: Evaluation of 15-PGDH inhibitory activity (fluorescence enzyme assay, NAD+/PGE2); assay type: biochemical; conditions: human 15-PGDH enzyme, fluorescence Vmax
T1 construct: purchased R&D System 5660-DH
T1 sequence (P15428 1-266): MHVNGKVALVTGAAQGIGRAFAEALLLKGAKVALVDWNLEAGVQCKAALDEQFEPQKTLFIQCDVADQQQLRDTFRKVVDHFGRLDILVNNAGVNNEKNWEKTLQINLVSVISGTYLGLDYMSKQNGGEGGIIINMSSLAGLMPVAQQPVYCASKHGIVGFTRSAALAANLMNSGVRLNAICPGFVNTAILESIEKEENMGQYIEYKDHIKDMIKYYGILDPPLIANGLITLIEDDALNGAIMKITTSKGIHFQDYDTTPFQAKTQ
Protocol: 15-PGDH inhibition activity of Example compounds was measured as follows. 6.7 ng of human 15-PGDH (R&D System# 5660-DH) enzyme (10 µL) was added to a black 96 well plate, 60 µL of buffer (50 mM Tris-HCl, pH 7.5, 0.01% Tween 20) was added, and 10 µL of 200 µM β-Nicotinamide adenine dinucleotide sodium salt (Sigma, Cat# N0632-5G) was added. 10 µL of (10x) compound solution in DMSO was added and reacted for 10 minutes at room temperature.

SMILES | IC50 [nM]
O=C(c1cc2nc(-c3ccc4c(c3)OCO4)ncc2[nH]1)N1CCCCC1 [Example 187, (2-(benzo[d][1,3]dioxol-5-yl)-5H-pyrrolo[3,2-d]pyrimidin-6-yl)(piperidin-1-yl)methanone] | 100 to 1000
O=C(c1cc2nc(-c3coc4ccccc34)ccc2[nH]1)N1CCCCC1 [Example 188, (5-(benzofuran-3-yl)-1H-pyrrolo[3,2-b]pyridin-2-yl)(piperidin-1-yl)methanone] | 100 to 1000
O=C(c1cnn2c(-c3cc4ccccc4o3)cccc12)N1CCCCC1 [Example 123, (7-(benzofuran-2-yl)pyrazolo[1,5-a]pyridin-3-yl)(piperidin-1-yl)methanone] | ≤ 100
Cn1ccc2cc(-c3cccc4c(C(=O)N5CCCCC5)cnn34)ccc2c1=O [Example 139, 2-methyl-6-(3-(piperidine-1-carbonyl)pyrazolo[1,5-a]pyridin-7-yl)isoquinolin-1(2H)-one] | ≤ 100
O=C(c1cnc2c(-c3cccc(Cl)c3)cccn12)N1CCCCC1 [Example 162, (8-(3-chlorophenyl)imidazo[1,2-a]pyridin-3-yl)(piperidin-1-yl)methanone] | ≤ 100
O=C(c1cnn2c(-c3ccc(C(F)(F)F)nc3Cl)cccc12)N1CCCCC1 [Example 272, (7-(2-chloro-6-(trifluoromethyl)pyridin-3-yl)pyrazolo[1,5-a]pyridin-3-yl)(piperidin-1-yl)methanone] | ≤ 100
O=C(c1cncc(-c2cccc3c(C(=O)N4CCCCC4)cnn23)c1)N1CC2(CCC2)C1 [Example 43, (7-(5-(2-azaspiro[3.3]heptane-2-carbonyl)pyridin-3-yl)pyrazolo[1,5-a]pyridin-3-yl)(piperidin-1-yl)methanone] | ≤ 100
O=C(c1cc2nc(-c3cccc(Cl)c3)ccc2[nH]1)N1CCCCC1 [Example 185, (5-(3-chlorophenyl)-1H-pyrrolo[3,2-b]pyridin-2-yl)(piperidin-1-yl)methanone] | 100 to 1000
O=C(c1cnn2c(-c3coc4ccccc34)cccc12)N1CCCCC1 [Example 122, (7-(benzofuran-3-yl)pyrazolo[1,5-a]pyridin-3-yl)(piperidin-1-yl)methanone] | ≤ 100
O=C(c1cc2ncc(-c3ccc4c(c3)OCO4)cc2[nH]1)N1CCCCC1 [Example 172, (6-(benzo[d][1,3]dioxol-5-yl)-1Hpyrrolo[3,2-b]pyridin-2-yl)(piperidin-1-yl)methanone] | > 1000
Nc1ccc(-c2cccc3c(C(=O)N4CCCCC4)cnn23)cc1 [Example 14, (7-(4-aminophenyl)pyrazolo[1,5-a]pyridin-3-yl)(piperidin-1-yl)methanone] | ≤ 100
O=C(c1cc2c(-c3ccc4c(c3)OCO4)ncnc2[nH]1)N1CCCCC1 [Example 177, (4-(benzo[d][1,3]dioxol-5-yl)-7H-pyrrolo[2,3-d]pyrimidin-6-yl)(piperidin-1-yl)methanone] | > 1000
O=C(c1cnn2c(-c3cccc(Cl)c3)cccc12)N1CCCCC1 [Example 2, (7-(3-chlorophenyl)pyrazolo[1,5-a]pyridin-3-yl)(piperidin-1-yl)methanone] | ≤ 100
O=C(c1cnn2c(-c3ccc4[nH]c(=O)ccc4c3)cccc12)N1CCCCC1 [Example 145, 6-(3-(piperidine-1-carbonyl)pyrazolo[1,5-a]pyridin-7-yl)quinolin-2(1H)-one] | ≤ 100
O=C(c1cc2c(-c3ccc4c(c3)OCO4)nccc2[nH]1)N1CCCCC1 [Example 174, (4-(benzo[d][1,3]dioxol-5-yl)-1H-pyrrolo[3,2-c]pyridin-2-yl)(piperidin-1-yl)methanone] | > 1000
O=C(c1cc2nc(-c3ccncc3)ccc2[nH]1)N1CCCCC1 [Example 184, piperidin-1-yl(5-(pyridin-4-yl)-1H-pyrrolo[3,2-b]pyridin-2-yl)methanone] | 100 to 1000
COc1ccc(-c2cccc3c(C(=O)N4CCCCC4)nnn23)cc1 [Example 168, (7-(4-methoxyphenyl)-[1,2,3]triazolo[1,5-a]pyridin-3-yl)(piperidin-1-yl)methanone] | 100 to 1000
Cn1nccc1-c1cccc2c(C(=O)N3CCCCC3)cnn12 [Example 25, (7-(1-methyl-1H-pyrazol-5-yl)pyrazolo[1,5-a]pyridin-3-yl)(piperidin-1-yl)methanone] | ≤ 100
O=C(c1cc2nc(-c3ccoc3)ccc2[nH]1)N1CCCCC1 [Example 183, (5-(furan-3-yl)-1H-pyrrolo[3,2-b]pyridin-2-yl)(piperidin-1-yl)methanone] | > 1000
O=C(c1cc2nc(-c3ccc4cn[nH]c4c3)ccc2[nH]1)N1CCCCC1 [Example 190, (5-(1H-indazol-6-yl)-1H-pyrrolo[3,2-b]pyridin-2-yl)(piperidin-1-yl)methanone] | ≤ 100
Cc1cc(-c2ccnc(Cl)c2)c2ncc(C(=O)N3CCCCC3)n2c1 [Example 166, (8-(2-chloropyridin-4-yl)-6-methylimidazo[1,2-a]pyridin-3-yl)(piperidin-1-yl)methanone] | 100 to 1000

Other lines, results leading:

IC50 [nM] | SMILES
100 to 1000 | O=C(c1cc2nc(-c3ccc(F)cc3)ccc2[nH]1)N1CCCCC1 [Example 182, (5-(4-fluorophenyl)-1H-pyrrolo[3,2-b]pyridin-2-yl)(piperidin-1-yl)methanone]
≤ 100 | O=C(c1c[nH]c2c(-c3cccc(Cl)c3)cccc12)N1CCCCC1 [Example 169, (7-(3-chlorophenyl)-1H-indol-3-yl)(piperidin-1-yl)methanone]
≤ 100 | O=C(c1cnn2cc(-c3cccc(Cl)c3)ccc12)N1CCCCC1 [Example 170, (6-(3-chlorophenyl)pyrazolo[1,5-a]pyridin-3-yl)(piperidin-1-yl)methanone]
100 to 1000 | CC(=O)c1cnn2c(-c3ccc(C#N)cc3)cccc12 [Example 152, 4-(3-acetylpyrazolo[1,5-a]pyridin-7-yl)benzonitrile]
100 to 1000 | O=C(c1cnn2c(-c3ccccc3)cccc12)C1CCCCC1 [Example 158, cyclohexyl(7-phenylpyrazolo[1,5-a]pyridin-3-yl)methanone]
≤ 100 | O=C(c1cnn2c(-c3ccc4[nH]ccc4c3)cccc12)N1CCCCC1 [Example 126, (7-(1H-indol-5-yl)pyrazolo[1,5-a]pyridin-3-yl)(piperidin-1-yl)methanone]
≤ 100 | Cn1ccc2ccc(-c3cccc4c(C(=O)N5CCCCC5)cnn34)cc2c1=O [Example 135, 2-methyl-7-(3-(piperidine-1-carbonyl)pyrazolo[1,5-a]pyridin-7-yl)isoquinolin-1(2H)-one]
≤ 100 | O=C(c1cnn2c(-c3ccc4c(c3)OCO4)cccc12)N1CCCCC1 [Example 121, (7-(benzo[d][1,3]dioxol-5-yl)pyrazolo[1,5-a]pyridin-3-yl)(piperidin-1-yl)methanone]
> 1000 | Nc1ccc(-c2cccn3c(C(=O)N4CCCCC4)cnc23)cc1 [Example 164, (8-(4-aminophenyl)imidazo[1,2-a]pyridin-3-yl)(piperidin-1-yl)methanone]
> 1000 | O=C(c1cc2c(-c3ccc4c(c3)OCO4)cncc2[nH]1)N1CCCCC1 [Example 175, (4-(benzo[d][1,3]dioxol-5-yl)-1H-pyrrolo[2,3-c]pyridin-2-yl)(piperidin-1-yl)methanone]
≤ 100 | COc1cccc(-c2cccc3c(C(=O)N4CCCCC4)cnn23)c1 [Example 4, (7-(3-methoxyphenyl)pyrazolo[1,5-a]pyridin-3-yl)(piperidin-1-yl)methanone]
> 1000 | O=C(c1n[nH]c2c(-c3cccc(Cl)c3)cccc12)N1CCCCC1 [Example 161, (7-(3-chlorophenyl)-1H-indazol-3-yl)(piperidin-1-yl)methanone]
> 1000 | O=C(c1cc2c(-c3ccc4c(c3)OCO4)ncnn2c1)N1CCCCC1 [Example 176, (4-(benzo[d][1,3]dioxol-5-yl)pyrrolo[2,1-f][1,2,4]triazin-6-yl)(piperidin-1-yl)methanone]
> 1000 | O=C(c1cc2nc(-c3ccc4ccccc4c3)ccc2[nH]1)N1CCCCC1 [Example 189, (5-(naphthalen-2-yl)-1H-pyrrolo[3,2-b]pyridin-2-yl)(piperidin-1-yl)methanone]
≤ 100 | O=C(c1cnn2c(-c3cccc4ccccc34)cccc12)N1CCCCC1 [Example 128, (7-(naphthalen-1-yl)pyrazolo[1,5-a]pyridin-3-yl)(piperidin-1-yl)methanone]
≤ 100 | COc1ccc(-c2ccc3c(C(=O)N4CCCCC4)cnn3c2)cc1 [Example 171, (6-(4-methoxyphenyl)pyrazolo[1,5-a]pyridin-3-yl)(piperidin-1-yl)methanone]
≤ 100 | COc1ccc(-c2cccc3c(C(=O)N4CCCCC4)cnn23)cc1OC [Example 24, (7-(3,4-dimethoxyphenyl)pyrazolo[1,5-a]pyridin-3-yl)(piperidin-1-yl)methanone]
≤ 100 | CN1Cc2cc(-c3cccc4c(C(=O)N5CCCCC5)cnn34)ccc2C1=O [Example 144, 2-methyl-5-(3-(piperidine-1-carbonyl)pyrazolo[1,5-a]pyridin-7-yl)isoindolin-1-one]
≤ 100 | O=C(c1cc2nc(-c3ccc4c(c3)OCO4)ccc2[nH]1)N1CCCCC1 [Example 173, (5-(benzo[d][1,3]dioxol-5-yl)-1H-pyrrolo[3,2-b]pyridin-2-yl)(piperidin-1-yl)methanone]
≤ 100 | O=C(c1cnc2c(-c3ccc([N+](=O)[O-])cc3)cccn12)N1CCCCC1 [Example 163, (8-(4-nitrophenyl)imidazo[1,2-a]pyridin-3-yl)(piperidin-1-yl)methanone]
